{"source": "patent US9078874B2", "about": "“Composition and method for treating cognitive impairments in down syndrom subjects” (Centre National De La Recherche Scientifique—CNRS, priority 2009, dated 2015)", "key": {"euploid and Ts65Dn mice [1]": {"system": "euploid and Ts65Dn mice", "experiment": "Morris water maze (MWM) spatial reference memory", "type": "in vivo", "description": "Spatial reference memory was evaluated using the standard Morris water maze task. The maze was similar to the one described above (dose-response effects of α5IA). The platform was submerged 1 cm below water surface in the center of one of the pool quadrants. During spatial allocentric training the non-visible platform remained at a constant position throughout the trials with numerous external visual indices available to facilitate formation of spatial cognitive maps.\nA total of 32 mice (16 euploid and 16 Ts65Dn mice) were used. Animals were randomly and equally distributed into 4 groups. Each day mice were injected with placebo or α5IA (5 mg/kg) 30 min before the onset of behavioral testing.\nOn the first day, mice were submitted to a single habituation trial with the non-visible platform available. On the following six days, spatial allocentric training consisted in daily sessions (2 trials per session). Start positions varied pseudo-randomly among the four cardinal points. Mean inter-trial interval was 2 hours. During the habituation and spatial training phases each trial ended when the animal reached the platform. A 90 sec cut-off was used, after which mice were manually guided to the platform. Once on the platform, animals were given a 20 sec rest before being replaced in their cage. Twenty-four hours after the last training session, a probe trial was performed (Day 8) during which the platform was removed and mice allowed to freely navigate for 60 sec.\nFollowing evaluation of spatial learning and memory skills, visual ability of mice was controlled using a non-spatial training procedure. Platform location was directly cued by a white styrene ball placed 12 cm above water surface and access to external indices was prevented by a black curtain surrounding the pool. Testing in this visually guided navigation task consisted of 4 daily sessions for 4 consecutive days as described above.\nAll data were collected, analyzed and stored using a video-tracking system (Ethovision, Noldus, Wageningen, The Netherlands).\nDuring probe trial one supplementary (euploid) mouse was removed from analysis for the same reason."}, "euploid and Ts65Dn mice [2]": {"system": "euploid and Ts65Dn mice", "experiment": "Locomotor activity and anxiety in the open field", "type": "in vivo", "description": "FIG. 7 depicts results from a locomotor activity and anxiety study of α5IA in Ts65Dn and euploid mice in the open field. Effects of α5IA (5 mg/kg) were evaluated on locomotion and anxiety in the open field.\nLocomotor activity was evaluated in a total of 33 mice 30 min after i.p. injections (placebo: 8 euploid and 7 Ts65Dn mice; α5IA (5 mg/kg): 10 euploid and 8 Ts65Dn mice). Locomotion was measured in a square open field (50 cm×50 cm; luminosity: 30 lux) with black walls 30 cm high. Briefly, each animal was placed in the center of the arena and allowed to freely explore it for 10 min. Horizontal activity was monitored using the Any-Maze software. Time spent in the 10-cm wide peripheral zone and in the complementary 30 cm×30 cm central zone was recorded to evaluate anxiety."}, "[3]": {"details": "Ts65Dn mice, 5 mg/kg i.p. 30 min before each session"}}, "data": [{"smiles": "Cc1cc(-c2nnc3c4ccccc4c(OCc4cn(C)nn4)nn23)no1", "note": "[α5IA, 3-(5-methylisoxazol-3-yl)-6-[(1-methyl-1,2,3-triazol-4-yl)methyloxy]-1,2,4-triazolo[3,4-a]phthalazine]", "values": [{"measurement": "hits (reaching the platform before 90 sec)", "setting": "euploid and Ts65Dn mice [1]; [3]", "value": "reversed after treatment"}, {"measurement": "learning index", "setting": "euploid and Ts65Dn mice [1]; [3]", "value": "corrected by treatment"}, {"measurement": "learning performance in the MWM", "setting": "euploid and Ts65Dn mice [1]; control euploid mice, 5 mg/kg", "value": "did not observe a significant promnesiant effect"}, {"measurement": "thigmotaxy, significance of the effect", "setting": "euploid and Ts65Dn mice [1]; euploid mice (p=0.06), 5 mg/kg", "value": "just failed to reach statistical significance"}, {"measurement": "retention performance during the probe test (24 hours)", "setting": "euploid and Ts65Dn mice [1]; euploid or Ts65Dn mice, 5 mg/kg", "value": "did not significantly increase retention performance"}, {"measurement": "performance in the cued (visible platform) version of the MWM", "setting": "euploid and Ts65Dn mice [1]; p>0.16, 5 mg/kg", "value": "did not find any effect"}, {"measurement": "thigmotaxy (wall-seeking behavior)", "setting": "euploid and Ts65Dn mice [1]; particularly in Ts65Dn mice (p<0.001), 5 mg/kg", "value": "strongly decreased"}, {"measurement": "locomotor activity and anxiety (periphery-to-center exploration ratio) in the open field", "setting": "euploid and Ts65Dn mice [2]; 5 mg/kg, Ts65Dn and euploid mice", "value": "did not alter locomotor activity and anxiety"}, {"measurement": "horizontal activity (traveled distances)", "setting": "euploid and Ts65Dn mice [2]; single injection 5 mg/kg, euploid and Ts65Dn mice", "value": "did not modify the gross locomotor activity"}]}]}
